Legend:
[1] = tested on: cultured epidermal cells; conditions: 5 mmol/L; independently from cell proliferation; cited from earlier work
[2] = tested on: Normal human epidermal cells; test: Test Example 2: hyaluronic acid production promotion in normal human epidermal cells; type: cell-based; conditions: 48-hour culture, FIG. 3
Description: Normal human epidermal cells (manufactured by Kurabo Industries Ltd.) were inoculated into 24-well plates and cultured in a culture medium for proliferation to the confluent density, and then 2-acetamido-1,3,4,6-tetra-O-acetyl-2-deoxy-β-D-glucopyranoside represented by formula (17) to a final concentration of 100 μmol/L, N-acetylglucosamine derivative obtained in Production Example 9 at a final concentration of 1 mmol/L, and N-acetylglucosamine derivatives obtained in Production Examples 10 to 12 at a final concentration of 100 mmol/L were added. After 48-hour culture from the addition, the amount of hyaluronic acid released into the culture medium was measured. The measurement of the hyaluronic acid was carried out by using a commercially available hyaluronic acid measurement kit (manufactured by Chugai Pharmaceutical Co., Ltd.).

[3] = 100 mmol/L (so in the source), 1/10 concentration of N-acetylglucosamine

| SMILES | hyaluronic acid production-promoting effect compared with N-acetylglucosamine [2, 3] [times] | other results |
| --- | --- | --- |
| CC(=O)N[C@H]1C(O)O[C@H](CO)[C@@H](O)[C@@H]1O (stereo partly drawn) [N-acetylglucosamine] | – | promotion of hyaluronic acid production [1]: about 1.5 times |
| CCOC1OC(COC(C)=O)C(OC(C)=O)C(OC(C)=O)C1NC(C)=O [Production Example 9, ethyl(2-acetamido-3,4,6-tri-O-acetyl-2-deoxy)β-D-glucopyranoside] | – | hyaluronic acid production-promoting effect compared with N-acetylglucosamine ([2]; 1 mmol/L (same concentration as N-acetylglucosamine)): 6.5 times |
| CCCCCOC1OC(COC(C)=O)C(OC(C)=O)C(OC(C)=O)C1NC(C)=O [Production Example 10, pentyl(2-acetamido-3,4,6-tri-O-acetyl-2-deoxy)β-D-glucopyranoside] | 3.8 | – |
| CCCCCCCCOC1OC(COC(C)=O)C(OC(C)=O)C(OC(C)=O)C1NC(C)=O [Production Example 11, octyl(2-acetamido-3,4,6-tri-O-acetyl-2-deoxy)β-D-glucopyranoside] | 2.8 | – |
| CC(=O)NC1C(OC/C=C(\C)CCC=C(C)C)OC(COC(C)=O)C(OC(C)=O)C1OC(C)=O [Production Example 12, geranyl(2-acetamido-3,4,6-tri-O-acetyl-2-deoxy)β-D-glucopyranoside] | 3.7 | – |
| CC(=O)NC1C(OC(C)=O)OC(COC(C)=O)C(OC(C)=O)C1OC(C)=O [formula (17), 2-acetamido-1,3,4,6-tetra-O-acetyl-2-deoxy-β-D-glucopyranoside] | – | hyaluronic acid production-promoting effect compared with N-acetylglucosamine ([2]; 100 μmol/L (1/10 concentration of N-acetylglucosamine)): 3.0 times |
